Assay results as given in ChEMBL document CHEMBL1201862, “PubChem BioAssay data set” (2004).
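Protocol summary: plate cells (96-well), add compound at 5 concentrations, incubate 48 h, interpolate endpoints linearly. GI50 is the concentration that inhibits growth by half.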 Calls of active or inactive are those of the source. No stated cut-off is given here; in the data, active = GI50 up to about 1.1 µM and inactive = higher.

Key:
Assay in all cases: DTP human tumour cell line panel, 48 h
SK-OV-3 = test system: SK-OV-3
EKVX = test system: EKVX
M14 = test system: M14
MOLT-4 = test system: MOLT-4
OVCAR-4 = test system: OVCAR-4
SK-MEL-2 = test system: SK-MEL-2
SK-MEL-28 = test system: SK-MEL-28
NCI/ADR-RES = test system: NCI/ADR-RES
UACC-62 = test system: UACC-62
Malme-3M = test system: Malme-3M
NCI-H226 = test system: NCI-H226
CAKI-1 = test system: CAKI-1
NCI-H23 = test system: NCI-H23
UACC-257 = test system: UACC-257
HT-29 = test system: HT-29
IGROV-1 = test system: IGROV-1
OVCAR-3 = test system: OVCAR-3
RPMI-8226 = test system: RPMI-8226
HL-60 = test system: HL-60
HCC 2998 = test system: HCC 2998

Compound	GI50 (SK-OV-3)	GI50 (EKVX)	GI50 (M14)	GI50 (MOLT-4)	GI50 (OVCAR-4)	GI50 (SK-MEL-2)	GI50 (SK-MEL-28)	GI50 (NCI/ADR-RES)	GI50 (UACC-62)	GI50 (Malme-3M)	GI50 (NCI-H226)	GI50 (CAKI-1)	GI50 (NCI-H23)	GI50 (UACC-257)	GI50 (HT-29)	GI50 (IGROV-1)	GI50 (OVCAR-3)	GI50 (RPMI-8226)	GI50 (HL-60)	GI50 (HCC 2998)
CC1(C)CCc2c(ccc(C(=O)/C=C/c3ccc(O)cc3)c2O)O1 [DORSMANNIN A]	17.7 µM (inactive)	0.142 µM (active)	10.9 µM (inactive)	16.1 µM (inactive)	9.48 µM (inactive)	11.9 µM (inactive)	0.201 µM (active)	11.4 µM (inactive)	10 µM (inactive)	7.59 µM (inactive)	11.3 µM (inactive)	5.28 µM (inactive)	12.5 µM (inactive)	12.5 µM (inactive)	11.9 µM (inactive)	9.1 µM (inactive)	8.99 µM (inactive)	8.39 µM (inactive)	19.7 µM (inactive)	–
COc1ccc(CCCC(=O)O)c(C)c1	–	> 100 µM (inactive)	92.9 µM (inactive)	15.7 µM (inactive)	48.2 µM (inactive)	39 µM (inactive)	91.4 µM (inactive)	> 100 µM (inactive)	36.8 µM (inactive)	27.2 µM (inactive)	22.7 µM (inactive)	17.8 µM (inactive)	53.3 µM (inactive)	73.5 µM (inactive)	> 100 µM (inactive)	45.1 µM (inactive)	30.3 µM (inactive)	–	37.5 µM (inactive)	–
CCOC(=O)CSc1c(C(=O)OCC)c(=O)n(-c2ccccc2)c(=S)n1-c1ccccc1	89.5 µM (inactive)	62.8 µM (inactive)	> 100 µM (inactive)	5.61 µM (inactive)	53.5 µM (inactive)	83 µM (inactive)	> 100 µM (inactive)	2.99 µM (inactive)	36.3 µM (inactive)	> 100 µM (inactive)	36.5 µM (inactive)	> 100 µM (inactive)	22.7 µM (inactive)	29.2 µM (inactive)	54.3 µM (inactive)	20.5 µM (inactive)	> 100 µM (inactive)	37.5 µM (inactive)	17.1 µM (inactive)	–
CC1(C)OP(=O)(O)CC1=O	> 100 µM (inactive)	> 100 µM (inactive)	> 100 µM (inactive)	–	> 100 µM (inactive)	> 100 µM (inactive)	> 100 µM (inactive)	> 100 µM (inactive)	> 100 µM (inactive)	> 100 µM (inactive)	> 100 µM (inactive)	> 100 µM (inactive)	> 100 µM (inactive)	> 100 µM (inactive)	> 100 µM (inactive)	> 100 µM (inactive)	> 100 µM (inactive)	–	–	> 100 µM (inactive)
Cc1cn(Cc2cnnn2CC2OC(n3cc(C)c(=O)[nH]c3=O)CC2O)c(=O)[nH]c1=O (stereo unspecified)	> 100 µM (inactive)	> 100 µM (inactive)	> 100 µM (inactive)	> 100 µM (inactive)	> 100 µM (inactive)	> 100 µM (inactive)	> 100 µM (inactive)	> 100 µM (inactive)	> 100 µM (inactive)	> 100 µM (inactive)	> 100 µM (inactive)	> 100 µM (inactive)	> 100 µM (inactive)	> 100 µM (inactive)	–	> 100 µM (inactive)	> 100 µM (inactive)	> 100 µM (inactive)	–	> 100 µM (inactive)
CCCCC1=C(C(=O)N2CCOCC2)C2(OCCO2)C1=O	62.4 µM (inactive)	26.2 µM (inactive)	17.8 µM (inactive)	51.2 µM (inactive)	23.1 µM (inactive)	25.1 µM (inactive)	27.5 µM (inactive)	22.2 µM (inactive)	34.9 µM (inactive)	20.6 µM (inactive)	2.86 µM (inactive)	21.9 µM (inactive)	18.3 µM (inactive)	28.9 µM (inactive)	18.8 µM (inactive)	17.9 µM (inactive)	19.5 µM (inactive)	–	30.2 µM (inactive)	–
COC1/C=C/C(C)C(C(C)C(OC)C(C)CCC(=O)C(C)C(C/C=C/N(C)C=O)OC)OC(=O)/C=C/C=C(\C)CC(OC)CC2=CC(=O)O[C@H](C2)C(C)C(OC)CC(OC)/C=C/C(C)C(OC)C1 (stereo partly specified)	0.00955 µM (active)	0.084 µM (active)	–	< 0.005 µM (active)	0.0984 µM (active)	0.00733 µM (active)	0.00875 µM (active)	0.0107 µM (active)	0.00752 µM (active)	0.00966 µM (active)	–	< 0.005 µM (active)	0.0521 µM (active)	0.00819 µM (active)	< 0.005 µM (active)	0.0113 µM (active)	–	< 0.005 µM (active)	–	0.0133 µM (active)
OCC1OC(n2ccc3cnccc32)CC1O (stereo unspecified)	> 100 µM (inactive)	> 100 µM (inactive)	> 100 µM (inactive)	> 100 µM (inactive)	> 100 µM (inactive)	> 100 µM (inactive)	> 100 µM (inactive)	–	> 100 µM (inactive)	> 100 µM (inactive)	> 100 µM (inactive)	> 100 µM (inactive)	> 100 µM (inactive)	> 100 µM (inactive)	> 100 µM (inactive)	> 100 µM (inactive)	> 100 µM (inactive)	> 100 µM (inactive)	> 100 µM (inactive)	> 100 µM (inactive)
COc1ccc(NCC(=O)Nn2c(-c3ccccc3)nc3ccccc3c2=O)cc1	> 100 µM (inactive)	69.2 µM (inactive)	41.3 µM (inactive)	18.4 µM (inactive)	33.7 µM (inactive)	–	74.5 µM (inactive)	25.2 µM (inactive)	14.1 µM (inactive)	30 µM (inactive)	> 100 µM (inactive)	–	37.2 µM (inactive)	52.2 µM (inactive)	32.4 µM (inactive)	27 µM (inactive)	60.7 µM (inactive)	24.2 µM (inactive)	42.3 µM (inactive)	77.6 µM (inactive)
FC(F)(F)C(C1=NC(C(F)(F)F)(C(F)(F)F)N=C(N2CCOCC2)O1)C(F)(F)F	31.3 µM (inactive)	17.1 µM (inactive)	18.8 µM (inactive)	28.9 µM (inactive)	22.9 µM (inactive)	22.2 µM (inactive)	20.1 µM (inactive)	16.6 µM (inactive)	13.5 µM (inactive)	–	–	23.2 µM (inactive)	> 10 µM (inactive)	20.8 µM (inactive)	18.7 µM (inactive)	19.6 µM (inactive)	25.5 µM (inactive)	20.8 µM (inactive)	5.57 µM (inactive)	41.5 µM (inactive)
Cc1cc(N(CCC#N)S(=O)(=O)c2ccccc2)ccc1/C=N\c1cccc(C(=O)O)c1	> 100 µM (inactive)	> 100 µM (inactive)	> 100 µM (inactive)	> 100 µM (inactive)	> 100 µM (inactive)	> 100 µM (inactive)	> 100 µM (inactive)	–	> 100 µM (inactive)	> 100 µM (inactive)	> 100 µM (inactive)	> 100 µM (inactive)	> 100 µM (inactive)	> 100 µM (inactive)	> 100 µM (inactive)	> 100 µM (inactive)	> 100 µM (inactive)	> 100 µM (inactive)	> 100 µM (inactive)	> 100 µM (inactive)
N#Cc1c(-c2ccccc2)cn(C(=O)c2ccccc2)c1N	> 100 µM (inactive)	> 100 µM (inactive)	> 100 µM (inactive)	> 100 µM (inactive)	21.3 µM (inactive)	> 100 µM (inactive)	> 100 µM (inactive)	> 100 µM (inactive)	> 100 µM (inactive)	> 100 µM (inactive)	> 100 µM (inactive)	–	> 100 µM (inactive)	–	> 100 µM (inactive)	> 100 µM (inactive)	> 100 µM (inactive)	> 100 µM (inactive)	> 100 µM (inactive)	< 0.01 µM (active)
Oc1c(OCc2nnc(CCCCCCCCc3nnc(COc4ccc5ccccc5c4O)n3Nc3ccccc3)n2Nc2ccccc2)ccc2ccccc12	9.77 µM (inactive)	11.6 µM (inactive)	1.97 µM (inactive)	12.7 µM (inactive)	5.42 µM (inactive)	9.12 µM (inactive)	2.07 µM (inactive)	11 µM (inactive)	0.671 µM (active)	9.33 µM (inactive)	7.55 µM (inactive)	0.676 µM (active)	8.69 µM (inactive)	4.21 µM (inactive)	8.28 µM (inactive)	12 µM (inactive)	8.02 µM (inactive)	0.682 µM (active)	–	5.26 µM (inactive)
O=C(c1cccs1)N(C(=S)OC12CC3CC(CC(C3)C1)C2)c1ccccc1	28.4 µM (inactive)	17.8 µM (inactive)	19.2 µM (inactive)	26.1 µM (inactive)	35 µM (inactive)	18.2 µM (inactive)	54.8 µM (inactive)	29.6 µM (inactive)	25.6 µM (inactive)	43.2 µM (inactive)	33.3 µM (inactive)	28.3 µM (inactive)	30.2 µM (inactive)	39.5 µM (inactive)	31.8 µM (inactive)	–	34.6 µM (inactive)	–	25 µM (inactive)	32.6 µM (inactive)
O=C(O)C(CCc1ccccc1)N1C(=O)c2ccccc2C1=O (stereo unspecified)	> 100 µM (inactive)	> 100 µM (inactive)	> 100 µM (inactive)	> 100 µM (inactive)	> 100 µM (inactive)	> 100 µM (inactive)	> 100 µM (inactive)	> 100 µM (inactive)	> 100 µM (inactive)	–	> 100 µM (inactive)	> 100 µM (inactive)	> 100 µM (inactive)	> 100 µM (inactive)	> 100 µM (inactive)	> 100 µM (inactive)	> 100 µM (inactive)	> 100 µM (inactive)	> 100 µM (inactive)	–
